According to the Kinase Knowledgebase extract (Sharma et al. 2016):

Target: EGFR (UniProt P00533)
Experiment: Inhibition of EGFR Kinase Activity

Sequence of EGFR (P00533 whole entry, looked up): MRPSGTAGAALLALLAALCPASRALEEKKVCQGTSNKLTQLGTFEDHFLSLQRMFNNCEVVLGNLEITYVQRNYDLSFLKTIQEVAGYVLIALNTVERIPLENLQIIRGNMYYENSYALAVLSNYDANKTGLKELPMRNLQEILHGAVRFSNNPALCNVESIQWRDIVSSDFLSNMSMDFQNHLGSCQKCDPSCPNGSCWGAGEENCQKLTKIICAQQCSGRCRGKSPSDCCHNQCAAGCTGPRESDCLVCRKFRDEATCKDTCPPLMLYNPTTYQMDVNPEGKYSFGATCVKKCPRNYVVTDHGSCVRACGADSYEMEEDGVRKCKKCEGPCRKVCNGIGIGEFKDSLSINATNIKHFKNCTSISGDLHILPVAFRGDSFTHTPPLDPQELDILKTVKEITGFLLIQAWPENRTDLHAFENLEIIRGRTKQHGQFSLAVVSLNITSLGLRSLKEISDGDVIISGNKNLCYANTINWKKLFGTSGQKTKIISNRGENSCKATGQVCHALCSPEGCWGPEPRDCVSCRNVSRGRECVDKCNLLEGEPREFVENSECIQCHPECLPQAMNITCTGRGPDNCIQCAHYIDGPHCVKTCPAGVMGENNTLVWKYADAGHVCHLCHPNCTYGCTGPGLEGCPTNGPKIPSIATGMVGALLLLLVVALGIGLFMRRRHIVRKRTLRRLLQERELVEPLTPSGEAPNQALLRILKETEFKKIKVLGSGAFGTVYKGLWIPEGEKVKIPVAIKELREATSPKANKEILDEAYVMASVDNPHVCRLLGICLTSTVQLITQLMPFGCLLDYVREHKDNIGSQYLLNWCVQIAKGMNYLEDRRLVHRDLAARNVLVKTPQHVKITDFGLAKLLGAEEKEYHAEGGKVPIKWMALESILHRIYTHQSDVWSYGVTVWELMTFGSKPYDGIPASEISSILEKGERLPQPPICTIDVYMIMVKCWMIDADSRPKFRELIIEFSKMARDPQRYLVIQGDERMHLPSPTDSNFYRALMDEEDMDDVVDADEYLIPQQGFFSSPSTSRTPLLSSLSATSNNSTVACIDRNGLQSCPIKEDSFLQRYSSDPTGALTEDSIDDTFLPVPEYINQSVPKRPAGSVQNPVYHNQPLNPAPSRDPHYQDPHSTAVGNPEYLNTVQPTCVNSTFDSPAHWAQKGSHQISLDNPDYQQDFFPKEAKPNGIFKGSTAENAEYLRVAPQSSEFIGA

IC50, < 50 µM:
C=CC(=O)N(CCCN1CCOCC1)c1cccc(Nc2ncnc(N(C)c3cccc(Cl)c3)n2)c1
CC#CC(=O)Nc1cccc(Nc2ncnc(Nc3cc(Cl)cc4ccccc34)n2)c1
C=CCN(c1ncnc(Nc2ccc(NC(=O)C=C)cc2)n1)N1CNc2ccccc21
CC#CC(=O)Nc1cccc(Nc2ncnc(N(CC)C3CC3c3ccc(Cl)cc3)n2)c1 (stereo unspecified)
CC#CC(=O)Nc1cc(Nc2ncnc(Nc3ccc4c(cnn4Cc4ccccc4)c3)n2)ccc1OCCCN1CCOCC1
C=CC(=O)Nc1ccc(Nc2ncnc(Nn3c(=O)n(C(=O)C(C)(C)C)c4ccccc43)n2)cc1
C=CC(=O)n1ncc2cc(Nc3ncnc(Nc4ccc5c(cnn5Cc5ccccc5)c4)n3)ccc21
C=CCN(c1ccc(OC)c(OC)c1)c1ncnc(Nc2cccc(NC(=O)C=C)c2)n1
C=CC(=O)Nc1cccc(Nc2ncnc(Nc3ccc(OCc4cccc(F)c4)cc3)n2)c1
C=CCN(c1ccc(C(=O)OC)cc1)c1ncnc(Nc2cccc(NC(=O)C=C)c2)n1
C=CCN(c1ncnc(Nc2ccc(NC(=O)C=C)cc2)n1)C1CC1c1ccc(Cl)cc1 (stereo unspecified)
C=C/C=C/C(=O)Nc1cccc(Nc2ncnc(NC3CC3c3ccc(Cl)cc3)n2)c1 (stereo unspecified)
C=CC(=O)Nc1ccc(Nc2ncnc(N(CC)c3ccc(OC)c(OCCOC)c3)n2)cc1
C=CC(=O)Nc1ccc(Nc2ncnc(N(C)c3cccc(C)c3)n2)cc1
C=CCN(c1ccc(OCCOC)c(OC)c1)c1ncnc(Nc2ccc(NC(=O)C=C)cc2)n1
CC#CC(=O)Nc1cccc(Nc2ncnc(N(C)c3ccc(F)c(Cl)c3)n2)c1
C=CC(=O)Nc1cccc(Nc2ncnc(Nc3cccc(S(=O)(=O)c4ccc([N+](=O)[O-])cc4)c3)n2)c1
C=CC(=O)Nc1cc(Nc2ncnc(N(C)c3ccc4c(ccn4Cc4ccccc4)c3)n2)ccc1OCCCN1CCOCC1
C=CC(=O)Nc1ccc(Nc2ncnc(Nc3cc(Cl)ccc3C)n2)cc1
C=CC(=O)Nc1cccc(Nc2ncnc(Nn3c(=O)n(C(=O)C(C)(C)C)c4ccccc43)n2)c1
CC#CC(=O)Nc1cccc(Nc2ncnc(N(CC)c3cccc(Cl)c3)n2)c1
C=CC(=O)Nc1cccc(Nc2ncnc(Nc3cccc4ccccc34)n2)c1
CC#CC(=O)Nc1cccc(Nc2ncnc(N(CC)c3ccc(OC)c(OCCOC)c3)n2)c1
C=CC(=O)Nc1cccc(Nc2ncnc(N(CC)c3ccc(F)c(Cl)c3)n2)c1
C=CC(=O)Nc1ccc(Nc2ncnc(N(CC)c3ccc(OCCOC)c(OC)c3)n2)cc1
C=CC(=O)Nc1ccc(Nc2ncnc(N(CC)c3ccc4c(cnn4Cc4ccccc4)c3)n2)cc1
C=CC(=O)Nc1cccc(Nc2ncnc(N(C)c3cccc(CC(=O)OC)c3)n2)c1
C=CC(=O)Nc1ccc(Nc2ncnc(N(CC)C3CC3c3ccc(Cl)cc3)n2)cc1 (stereo unspecified)
C=CC(=O)Nc1cccc(Nc2ncnc(N(CC)C3CC3c3ccccc3)n2)c1 (stereo unspecified)
CC#CC(=O)Nc1cccc(Nc2ncnc(N(CC)n3c(=O)n(C(=O)C(C)(C)C)c4ccccc43)n2)c1
CC#CC(=O)Nc1cccc(Nc2ncnc(Nc3ccc(OCc4ccccc4)c(Cl)c3)n2)c1
C=CCN(c1ncnc(Nc2cccc(NC(=O)C#CC)c2)n1)C1CC1c1ccccc1 (stereo unspecified)
C=CC(=O)Nc1cccc(Nc2ncnc(N(CC)c3cccc(C(N)=O)c3)n2)c1
C=CC(=O)N(CCCN1CCOCC1)c1cccc(Nc2ncnc(Nc3cccc(C)c3)n2)c1
C=CC(=O)Nc1cccc(Nc2ncnc(N(C)c3cccc(C(N)=O)c3)n2)c1
C=CCN(c1ccc(OCCOC)c(OC)c1)c1ncnc(Nc2cccc(NC(=O)C=C)c2)n1
C=CC(=O)Nc1ccc(Nc2ncnc(Nc3ccc(OCC)c(OCC)c3)n2)cc1
CC#CC(=O)Nc1cccc(Nc2ncnc(Nc3ccc(OCCC)c(OCCC)c3)n2)c1
C=CC(=O)Nc1ccc(Nc2ncnc(Nc3cccc(S(=O)(=O)c4ccc([N+](=O)[O-])cc4)c3)n2)cc1
C=CC(=O)N(OCCCN1CCOCC1)c1cccc(Nc2ncnc(NN3CCCc4ccc(Cl)cc43)n2)c1
C=CC(=O)Nc1ccc(Nc2ncnc(N(CC)c3cccc4ccccc34)n2)cc1
C=CC(=O)Nc1ccc(Nc2ncnc(N(CC)c3cccc(C(N)=O)c3)n2)cc1
C=CC(=O)Nc1cccc(Nc2ncnc(Nc3cccc(C)c3)n2)c1
CC#CC(=O)Nc1cccc(Nc2ncnc(N(C)c3cccc(CC(=O)OC)c3)n2)c1
CC#CC(=O)Nc1cc(Nc2ncnc(N(C)c3ccc4c(ccn4Cc4ccccc4)c3)n2)ccc1OCCCC1CCN(C)CC1
C=CC(=O)Nc1cc(Nc2ncnc(Nc3ccc(OCc4ccccc4)c(Cl)c3)n2)ccc1OCCCC1CCN(C)CC1
C=CCN(c1ccc(OCc2ccccc2)cc1)c1ncnc(Nc2cccc(NC(=O)C#CC)c2)n1
CC#CC(=O)Nc1cccc(Nc2ncnc(Nc3cccc(Cl)c3)n2)c1
C=CCN(c1ccc(OCCOC)c(OC)c1)c1ncnc(Nc2cccc(NC(=O)C#CC)c2)n1
C=CC(=O)Nc1cccc(Nc2ncnc(N(C)C3CC3c3ccccc3)n2)c1 (stereo unspecified)
C=CCN(c1ncnc(Nc2cccc(NC(=O)C=C)c2)n1)n1c(=O)n(C(=O)C(C)(C)C)c2ccccc21
CCN(c1ccc2NN(=Cc2c1)Cc3ccccn3)c4ncnc(Nc5cccc(NC(=O)C#CC)c5)n4
C=CC(=O)N(CCCN1CCOCC1)c1cccc(Nc2ncnc(Nc3ccc(OCCO)cc3)n2)c1
C=CC(=O)Nc1ccc(Nc2ncnc(Nc3cccc4ccccc34)n2)cc1
CC#CC(=O)Nc1cccc(Nc2ncnc(N(CC)c3ccc(OCCO)cc3)n2)c1
CC#CC(=O)Nc1cccc(Nc2ncnc(Nc3ccc4c(ccn4Cc4ccccc4)c3)n2)c1
C=CCN(c1ncnc(Nc2cccc(NC(=O)C=C)c2)n1)c1cc(Cl)ccc1C
C=CC(=O)N(CCCN1CCOCC1)c2cccc(Nc3ncnc(Nc4ccc5NN(=Cc5c4)Cc6ccccn6)n3)c2
C=CC(=O)Nc1cccc(Nc2ncnc(N(CC)n3c(=O)[nH]c4ccccc43)n2)c1
C=CCN(c1ncnc(Nc2cccc(NC(=O)C=C)c2)n1)n1c(=O)[nH]c2ccccc21
C=CCN(c1ccc2NN(=Cc2c1)Cc3ccccn3)c4ncnc(Nc5cccc(NC(=O)C=C)c5)n4
